Assay [1] has as its target T1, human adenosine A2A receptor (Homo sapiens, UniProt P29274).
T1 construct: expressed in transfected cells; host or cells: CHO-K1
The assay is described as follows: Adenosine A2A receptor functional assay (A2AGAL2), cAMP inducible beta-galactosidase reporter, NECA challenge. It counts as cell-based. The note with it: for IC50: CHO-K1 cells overexpressing human A2A receptor, antagonist curve against 15 nM NECA; for A1/A2A: ratio of A1Gal2 to A2AGal2 values (selectivity for A2A over A1). How it is done: Adenosine A2 Receptor Functional Assay (A2AGAL2)
To initiate the functional assay, cryopreserved CHO—K1 cells overexpressing the human adenosine A2A receptor and containing a cAMP inducible beta-galactosidase reporter gene were thawed, centrifuged, DMSO containing media removed, and then seeded with fresh culture media into clear 384-well tissue culture treated plates (BD #353961) at a concentration of 10K cells/well. Prior to assay, these plates were cultured for two days at 37° C., 5% CO2, 90% Rh. On the day of the functional assay, culture media was removed and replaced with 45 μL assay medium (Hams/F-12 Modified (Mediatech # 10-080CV) supplemented w/0.1% BSA). Test compounds were diluted and 11 point curves created at a 1000× concentration in 100% DMSO. Immediately after addition of assay media to the cell plates, […] of the appropriate test compound antagonist or agonist control curves were added to cell plates using a Cartesian Hummingbird. Compound curves were allowed to incubate at room temperature on cell plates for approximately 15 minutes before addition of a 15 nM NECA (Sigma E2387) agonist challenge (5 μL volume). A control curve of NECA, a DMSO/Media control, and a single dose of Forskolin (Sigma F3917) were also included on each plate. After additions, cell plates were allowed to incubate at 37° C., 5% CO2, 90% Rh for 5.5-6 hours. After incubation, media were removed, and cell plates were washed 1×50 μL with DPBS w/o Ca & Mg (Mediatech 21-031-CV). Into dry wells, 20 μL of 1× Reporter Lysis Buffer (Promega E3971 (diluted in dH2O from 5× stock)) was added to each well and plates frozen at −20° C. overnight. For β-galactosidase enzyme colorimetric assay, plates were thawed out at room temperature and 20 μL 2× assay buffer (Promega) was added to each well. Color was allowed to develop at 37° C., 5% CO2, 90% Rh for 1-1.5 h or until reasonable signal appeared. The colorimetric reaction was stopped with the addition of 60 μL/well 1M sodium carbonate. Plates were counted at 405 nm on a SpectraMax Microplate Reader (Molecular Devices). Data was analyzed in Microsoft Excel and IC/EC50 curves were fit using a standardized macro.

Assay [2] addresses T2, human adenosine A1 receptor (Homo sapiens, UniProt P30542).
T2 construct: expressed in transfected cells; host or cells: CHO-K1
T2 sequence (P30542 1-326): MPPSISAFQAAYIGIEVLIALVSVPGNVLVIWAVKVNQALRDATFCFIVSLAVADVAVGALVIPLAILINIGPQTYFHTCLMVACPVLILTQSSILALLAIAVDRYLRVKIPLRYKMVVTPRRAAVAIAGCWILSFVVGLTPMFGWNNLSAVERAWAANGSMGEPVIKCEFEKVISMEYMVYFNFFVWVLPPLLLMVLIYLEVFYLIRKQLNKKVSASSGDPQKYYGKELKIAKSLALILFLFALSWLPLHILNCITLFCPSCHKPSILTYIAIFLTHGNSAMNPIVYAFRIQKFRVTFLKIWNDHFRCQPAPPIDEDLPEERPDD
Nature of the assay: Adenosine A1 receptor functional assay (A1GAL2), cAMP inducible beta-galactosidase reporter, r-PIA/Forskolin challenge. It counts as cell-based. The settings on record: CHO-K1 cells overexpressing human A1 receptor; antagonist curve against 4 nM r-PIA/1 uM Forskolin. On the procedure: Adenosine A1 Receptor Functional Assay (A1GAL2)
To initiate the functional assay, cryopreserved CHO—K^1 cells overexpressing the human adenosine A1 receptor and containing a cAMP inducible beta-galactosidase reporter gene were thawed, centrifuged, DMSO containing media removed, and then seeded with fresh culture media into clear 384-well tissue culture treated plates (BD #353961) at a concentration of 10K cells/well. Prior to assay, these plates were cultured for two days at 37° C., 5% CO2, 90% Rh. On the day of the functional assay, culture media was removed and replaced with 45 μL assay medium (Hams/F-12 Modified (Mediatech # 10-080CV) supplemented w/0.1% BSA). Test compounds were diluted and 11 point curves created at a 1000× concentration in 100% DMSO. Immediately after addition of assay media to the cell plates, […] of the appropriate test compound antagonist or agonist control curves were added to cell plates using a Cartesian Hummingbird. Compound curves were allowed to incubate at room temperature on cell plates for approximately 15 minutes before addition of a 4 nM r-PIA (Sigma P4532)/1 uM Forskolin (Sigma F3917) agonist challenge (5 μL volume). A control curve of r-PIA in 1 uM Forskolin, a DMSO/Media control, and a single dose of Forskolin were also included on each plate. After additions, cell plates were allowed to incubate at 37° C., 5% CO2, 90% Rh for 5.5-6 hours. After incubation, media was removed, and cell plates were washed 1×50 μL with DPBS w/o Ca & Mg (Mediatech 21-031-CV). Into dry wells, 20 μL of 1× Reporter Lysis Buffer (Promega E3971 (diluted in dH2O from 5× stock)) was added to each well and plates frozen at −20° C. overnight. For β-galactosidase enzyme colorimetric assay, plates were thawed out at room temperature and 20 μL 2× assay buffer (Promega) was added to each well. Color was allowed to develop at 37° C., 5% CO2, 90% Rh for 1-1.5 h or until reasonable signal appeared. […] Plates were counted at 405 nm on a SpectraMax Microplate Reader (Molecular Devices). Data was analyzed in Microsoft Excel and IC/EC50 curves were fit using a standardized macro.

This is an account of results in patent US20110105541A1, “ALKYL SUBSTITUTED ARYLINDENOPYRIMIDINES AND THEIR USE AS HIGHLY SELECTIVE ADENOSINE A2a RECEPTOR ANTAGONISTS” (priority 2009, published 2011).

T1 sequence (P29274 whole entry): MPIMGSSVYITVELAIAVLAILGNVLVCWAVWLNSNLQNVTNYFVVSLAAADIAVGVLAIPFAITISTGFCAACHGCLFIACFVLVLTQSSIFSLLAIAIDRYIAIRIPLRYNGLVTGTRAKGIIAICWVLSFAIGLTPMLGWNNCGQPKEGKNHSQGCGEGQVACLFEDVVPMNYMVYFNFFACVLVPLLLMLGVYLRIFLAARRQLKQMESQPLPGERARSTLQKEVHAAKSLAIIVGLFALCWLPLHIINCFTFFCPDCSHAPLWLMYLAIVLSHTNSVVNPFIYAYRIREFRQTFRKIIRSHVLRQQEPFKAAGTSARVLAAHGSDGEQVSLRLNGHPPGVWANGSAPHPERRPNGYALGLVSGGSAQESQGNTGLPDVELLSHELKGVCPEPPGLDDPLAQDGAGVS

`Nc1nc(-c2ccc(F)cc2)c2c(n1)-c1c(Cc3cn[nH]c3)cccc1C2=O` [Example 2, 2-Amino-4-(4-fluoro-phenyl)-9-(1H-pyrazol-4-ylmethyl)-indeno[1,2-d]pyrimidin-5-one]: in assay [1], the IC50 turned out to be 0.00075 µM and the A1/A2A worked out at 195.975. In assay [2], this compound displayed a half-inhibitory concentration (IC50) of 0.147 µM.
On to `Cc1nc(C)c(Cc2cccc3c2-c2nc(N)nc(-c4ccc(F)cc4)c2C3=O)s1` [Example 1, 2-Amino-9-(2,4-dimethyl-thiazol-5-ylmethyl)-4-(4-fluoro-phenyl)-indeno[1,2-d]pyrimidin-5-one], for which, in assay [1], the midpoint of inhibition, the IC50, lay at 0.0119 µM and the A1/A2A was found to be 276.249. In addition, in assay [2], it took 3.28 µM to reach half-maximal inhibition (IC50).
Taken in the same sequence, the figures for `Cc1noc(C)c1Cc1cccc2c1-c1nc(N)nc(-c3ccc(F)cc3)c1C2=O` [Example 3, 2-Amino-9-(3,5-dimethyl-isoxazol-4-ylmethyl)-4-(4-fluoro-phenyl)-indeno[1,2-d]pyrimidin-5-one] were 0.0413 µM, 64.5654 and 2.67 µM.

Broadly, the IC50 is the concentration that gives 50% inhibition. A higher IC50 goes with a need for much substance.
